pIC50: −log10 of the molar value.
The compounds below were run on N87 (human gastric carcinoma derived from metastatic liver site) (assay: Cytotoxicity assay for payloads (MTS), N87 cells). Conditions: Homo sapiens, 96 h, read-out: N87 IC50 (nM).
Assay type: cell-based
Description: (§1) Cancer cell lines were obtained from ATCC (Manassas, Va.). N87 (human gastric carcinoma derived from metastatic liver site). HL60 (leukemia), A375 (melanoma) and HUVEC (human umbilical vein endothelial cells). were grown in RPMI 1640 media. All media were supplemented with 10% fetal bovine serum, 1% sodium pyruvate, and 1% L-glutamine (Invitrogen, Grand Island, N.Y.). Human umbilical vein endothelial cells (HUVEC) were obtained from Lonza (Allendale, N.J.) and maintained in EGM2 media supplemented with EGM-2 SingleQuots (Lonza # CC-4176). All cells were maintained in a humidified incubator (37° C., 5% CO2).
(§2) Cells in 100 μl medium were cultured in a 96-well plate. Cancer cell lines treated with the indicated compounds by adding 50 μl of 3× stocks in duplicate at 10 concentrations. Cells were incubated with compounds for four days, then 30 μl of CellTiter® 96 AQueous One MTS Solution (Promega Cat # G3582) was added to the cells, incubated 1.5 hr at 37° C., then absorbance measured at 490 nm on a Victor plate reader (Perkin Elmer, Waltham, Mass.). Relative cell viability was determined as a percentage of untreated control wells. IC50 values were calculated using four parameter logistic model #203 with XLfit v4.2 (IDBS, Guildford, Surry, UK).

With CN(C)CCNC(=O)Oc1cc2c(c3ccccc13)[C@H](CCl)CN2C(=O)c1ccc(C(=O)N2C[C@@H](CCl)c3c2cc(O)c2ccccc32)s1 [Compound 123, (S)-1-(chloromethyl)-3-(5-((S)-1-(chloromethyl)-5-hydroxy-2,3-dihydro-1H-benzo[e]indole-3-carbonyl)thiophene-2-carbonyl)-2,3-dihydro-1H-benzo[e]indol-5-yl(2-(dimethylamino)ethyl)carbamate] the IC50 was 0.003 nM.

Same assay, conditions: Homo sapiens, 96 h; N87 cells, incubated with compounds for four days, MTS absorbance 490 nm; read-out: N87 IC50

Compared with O=C(c1ccc(C(=O)N2C[C@@H](CCl)c3c2cc(O)c2ccccc32)o1)N1C[C@@H](CCl)c2c1cc(O)c1ccccc21 [Compound 13, (S)-furan-2,5-diylbis(((S)-1-(chloromethyl)-5-hydroxy-1H-benzo[e]indol-3(2H)-yl)methanone)], Cn1c(C(=O)N2C[C@@H](CCl)c3c2cc(O)c2ccccc32)ccc1C(=O)N1C[C@@H](CCl)c2c1cc(O)c1ccccc21 [Compound 38, (S)-(1-methyl-1H-pyrrole-2,5-diyl)bis(((S)-1-(chloromethyl)-5-hydroxy-1H-benzo[e]indol-3(2H)-yl)methanone)] is lower in pIC50: 9.86 for the first, no more than 8.00 for the second.

Compared with O=C(c1cncc(C(=O)N2C[C@@H](CCl)c3c2cc(O)c2ccccc32)c1)N1C[C@@H](CCl)c2c1cc(O)c1ccccc21 [Compound 26, (S)-pyridine-3,5-diylbis(((S)-1-(chloromethyl)-5-hydroxy-1H-benzo[e]indol-3(2H)-yl)methanone)], O=C(c1csc(C(=O)N2C[C@@H](CCl)c3c2cc(O)c2ccccc32)c1)N1C[C@@H](CCl)c2c1cc(O)c1ccccc21 [Compound 35, (S)-thiophene-2,4-diylbis(((S)-1-(chloromethyl)-5-hydroxy-1H-benzo[e]indol-3(2H)-yl)methanone)] is higher in pIC50: no more than 8.00 for the first, 8.92 for the second. The second is the more potent here.

Compared with O=C(N[C@@H](CCC(=O)N1C[C@@H](CCl)c2c1cc(O)c1ccccc21)C(=O)N1C[C@@H](CCl)c2c1cc(O)c1ccccc21)OCC1c2ccccc2-c2ccccc21 [Compound 60, [(S)-1-((S)-1-Chloromethyl-5-hydroxy-1,2-dihydro-benzo[e]indole-3-carbonyl)-4-((S)-1-chloromethyl-5-hydroxy-1,2-dihydro-benzo[e]indol-3-yl)-4-oxo-butyl]-carbamic acid 9H-fluoren-9-ylmethyl ester], O=C(CCc1ccc(CCC(=O)N2C[C@@H](CCl)c3c2cc(O)c2ccccc32)s1)N1C[C@@H](CCl)c2c1cc(O)c1ccccc21 [Compound 146, 3,3′-thiene-2,5-diylbis{1-[(1S)-1-(chloromethyl)-5-hydroxy-1,2-dihydro-3H-benzo[e]indol-3-yl]propan-1-one}] is higher in pIC50: no more than 8.00 for the first, 8.51 for the second.

Compared with CC(=O)Oc1cc2c(c3ccccc13)[C@H](CCl)CN2C(=O)c1ccc(C(=O)N2C[C@@H](CCl)c3c2cc(OC(C)=O)c2ccccc32)[nH]1 [Compound 68, (1S,1′S)-3,3′-(1H-pyrrole-2,5-dicarbonyl)bis(1-(chloromethyl)-2,3-dihydro-1H-benzo[e]indole-5,3-diyl)diacetate], CC(=O)Oc1cc2c(c3ccccc13)[C@H](CCl)CN2C(=O)c1cnc(C(=O)N2C[C@@H](CCl)c3c2cc(OC(C)=O)c2ccccc32)s1 [Compound 71, (1S,1′S)-3,3′-(thiazole-2,5-dicarbonyl)bis(1-(chloromethyl)-2,3-dihydro-1H-benzo[e]indole-5,3-diyl)diacetate] is 0.41 log units lower in pIC50: 10.48 for the first, 10.07 for the second. The first is the more potent here.

Cc1c[nH]c2c(O)cc3c(c12)[C@H](CCl)CN3C(=O)c1ccc(C(=O)N2C[C@@H](CCl)c3c2cc(O)c2ccccc32)s1 [Compound 117, ((S)-1-Chloromethyl-5-hydroxy-1,2-dihydro-benzo[e]indol-3-yl)-[5-((S)-1-chloromethyl-5-hydroxy-8-methyl-1,6-dihydro-2H-pyrrolo[3,2-e]indole-3-carbonyl)-thiophen-2-yl]methanone] and CC(=O)Oc1cc2c(c3ccccc13)[C@H](CCl)CN2C(=O)c1ccc(C(=O)N2C[C@@H](CCl)c3c2cc(O)c2ccccc32)s1 [Compound 170, (1S)-1-(chloromethyl)-3-[(5-{[(1S)-1-(chloromethyl)-5-hydroxy-1,2-dihydro-3H-benzo[e]indol-3-yl]carbonyl}thiophen-2-yl)carbonyl]-2,3-dihydro-1H-benzo[e]indol-5-yl acetate] are within 0.2 log units of each other in pIC50: 11.40 for the first, 11.30 for the second.

Going from COC(=O)Oc1cc2c(c3ccccc13)[C@H](CCl)CN2C(=O)c1ccc(C(=O)N2C[C@@H](CCl)c3c2cc(O)c2ccccc32)s1 [Compound 119, (S)-1-(chloromethyl)-3-(5-((S)-1-(chloromethyl)-5-hydroxy-2,3-dihydro-1H-benzo[e]indole-3-carbonyl)thiophene-2-carbonyl)-2,3-dihydro-1H-benzo[e]indol-5-yl methyl carbonate] to CC(=O)OC[C@H]1O[C@@H](Oc2cc3c(c4ccccc24)[C@H](CCl)CN3C(=O)c2ccc(C(=O)N3C[C@@H](CCl)c4c3cc(O)c3ccccc43)s2)[C@H](OC(C)=O)[C@@H](OC(C)=O)[C@H]1OC(C)=O [Compound 153, (2R,3S,4S,5R,6S)-2-(acetoxymethyl)-6-(((S)-1-(chloromethyl)-3-(5-((S)-1-(chloromethyl)-5-hydroxy-2,3-dihydro-1H-benzo[e]indole-3-carbonyl)thiophene-2-carbonyl)-2,3-dihydro-1H-benzo[e]indol-5-yl)oxy)tetrahydro-2H-pyran-3,4,5-triyl triacetate], the pIC50 falls from 11.40 to 8.35 (3.05 log units). The first is the more potent here.

Going from CC(=O)Oc1cc2c(c3ccccc13)[C@H](CCl)CN2C(=O)Cc1ccc(CC(=O)N2C[C@@H](CCl)c3c2cc(OC(C)=O)c2ccccc32)s1 [Compound 160, thiene-2,5-diylbis[(1-oxoethane-2,1-diyl)(1S)-1-(chloromethyl)-1,2-dihydro-3H-benzo[e]indole-3,5-diyl] diacetate] to CC(=O)Oc1cc2c(c3ccccc13)[C@H](CCl)CN2C(=O)C12C3C4C1C1C2C3C41C(=O)N1C[C@@H](CCl)c2c1cc(OC(C)=O)c1ccccc21 (stereo partly drawn) [Compound 181, pentacyclo[4.2.0.0~2,5~.0~3,8~.0~4,7~]octane-1,4-diylbis[carbonyl(1S)-1-(chloromethyl)-1,2-dihydro-3H-benzo[e]indole-3,5-diyl] diacetate], the pIC50 rises from 7.90 to 11.30 (3.40 log units).

Same assay, conditions: N87 cells, incubated with compounds for four days, MTS absorbance 490 nm; read-out: N87 IC50

Compound CNCCN(C)C(=O)Oc1cc2c(c3ccccc13)[C@H](CCl)CN2C(=O)c1ccc(C(=O)N2C[C@@H](CCl)c3c2cc(O)c2ccccc32)s1 [Compound 126, (S)-1-(chloromethyl)-3-(5-((S)-1-(chloromethyl)-5-hydroxy-2,3-dihydro-1H-benzo[e]indole-3-carbonyl)thiophene-2-carbonyl)-2,3-dihydro-1H-benzo[e]indol-5-ylmethyl(2-(methylamino)ethyl)carbamate] has a pIC50 of 11.40.

What follows are compounds tested on HL60 (leukemia) (assay: Cytotoxicity assay for payloads (MTS), HL-60 cells). Conditions: Homo sapiens, 96 h, incubated with compounds for four days, MTS absorbance 490 nm.
Assay type: cell-based
Description: as §1, §2

Going from O=C(c1ccc(C(=O)N2C[C@@H](CCl)c3c2cc(O)c2ccccc32)o1)N1C[C@@H](CCl)c2c1cc(O)c1ccccc21 [Compound 13, (S)-furan-2,5-diylbis(((S)-1-(chloromethyl)-5-hydroxy-1H-benzo[e]indol-3(2H)-yl)methanone)] to O=C(O)[C@H]1O[C@@H](Oc2cc3c(c4ccccc24)[C@H](CCl)CN3C(=O)c2ccc(C(=O)N3C[C@@H](CCl)c4c3cc(O)c3ccccc43)s2)[C@H](O)[C@@H](O)[C@@H]1O [Compound 164, (2S,3S,4S,5R,6S)-6-(((S)-1-(chloromethyl)-3-(5-((S)-1-(chloromethyl)-5-hydroxy-2,3-dihydro-1H-benzo[e]indole-3-carbonyl)thiophene-2-carbonyl)-2,3-dihydro-1H-benzo[e]indol-5-yl)oxy)-3,4,5-trihydroxytetrahydro-2H-pyran-2-carboxylic acid], the pIC50 falls from 10.85 to 10.24 (0.61 log units).

First: CC(=O)Oc1cc2c(c3ccccc13)[C@H](CCl)CN2C(=O)CNCC(=O)N1C[C@@H](CCl)c2c1cc(OC(C)=O)c1ccccc21 [Compound 53, Acetic acid (S)-3-{2-[2-((S)-5-acetoxy-1-chloromethyl-1,2-dihydro-benzo[e]indol-3-yl)-2-oxo-ethylamino]-acetyl}-1-chloromethyl-2,3-dihydro-1H-benzo[e]indol-5-1 ester]
Second: CC(=O)Oc1cc2c(c3ccccc13)[C@H](CCl)CN2C(=O)[C@H]1C[C@@H](C(=O)N2C[C@@H](CCl)c3c2cc(OC(C)=O)c2ccccc32)C1 [Compound 168, cis-cyclobutane-1,3-diylbis[carbonyl(1S)-1-(chloromethyl)-1,2-dihydro-3H-benzo[e]indole-3,5-diyl] diacetate]
The pIC50 of the first is 0.91 log units higher: 10.92 for the first, 10.01 for the second.

Compared with CC(=O)Oc1cc2c(c3ccccc13)[C@H](CCl)CN2C(=O)C12CCC(C(=O)N3C[C@@H](CCl)c4c3cc(O)c3ccccc43)(CC1)C2 [Compound 134, (1S)-1-(chloromethyl)-3-[(4-{[(1S)-1-(chloromethyl)-5-hydroxy-1,2-dihydro-3H-benzo[e]indol-3-yl]carbonyl}bicyclo[2.2.1]hept-1-yl)carbonyl]-2,3-dihydro-1H-benzo[e]indol-5-yl acetate], CC(=O)Oc1cc2c(c3ccccc13)[C@H](CCl)CN2C(=O)[C@]12CCC[C@](C(=O)N3C[C@@H](CCl)c4c3cc(O)c3ccccc43)(C1)C2 [Compound 175, (1S)-1-(chloromethyl)-3-{[(1S,5S)-5-{[(1S)-1-(chloromethyl)-5-hydroxy-1,2-dihydro-3H-benzo[e]indol-3-yl]carbonyl}bicyclo[3.1.1]hept-1-yl]carbonyl}-2,3-dihydro-1H-benzo[e]indol-5-yl acetate] is 2.07 log units lower in pIC50: 10.00 for the first, 7.93 for the second.
